Values of other authors in patent US6465192B2, “Compounds and methods for the inhibition of protein-protein interactions” (priority 1997, dated 2002).

Columns and labels:
[1] = halogen substitutions of the phenyl ring, SN1

Compound | Relative reaction rate [1] | forward reaction rate with lysine side chains in proteins (physiological conditions) | non-specific covalent bonding rate constant to form stable bonds with amino acid side chains (side chains such as those of serine and lysine)
COc1ccc([N+](=O)[O-])c(Br)c1CBr [R = Br, 2-methoxy-5-nitro-6-bromobenzyl bromide] | 0.006 | – | –
COc1ccc([N+](=O)[O-])c(F)c1CBr [R = F, 2-methoxy-5-nitro-6-fluorobenzyl bromide] | 0.05 | – | –
penicillin | – | about 1×10^−5 /M/sec | about 8×10^−6 /M/sec
